Molecules are shown by their SMILES. “And” between values parts separate entries of the source, which are not always exact repeats. Equal values may be shown once.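 Grown in 96-well plates, cells were treated for 48 hours with each compound at five concentrations. Insufficient inhibition: endpoint recorded as highest concentration tested. At the GI50, growth is halved.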 The source made the active and inactive calls. No stated cut-off is given here; in the data, active = GI50 up to about 1.1 µM and inactive = higher.

Holding throughout (assay): NCI-60 cell line screen, 48 h
In test [1] the test system is M14.
The test system of test [2] is SNB-19.
Test [3] has as its system OVCAR-3.
Test [4] relates to OVCAR-8.
Test [5] concerns LOX IMVI.
For test [6], the system named is UO-31.
The subject of test [7] is HT-29.
The subject of test [8] is SR.
Test [9] deals with MDA-MB-435.
Test [10] concerns OVCAR-4.
The subject of test [11] is SK-MEL-5.
Test [12] relates to SW-620.
The subject of test [13] is TK-10.
Test [14] concerns SK-OV-3.
The test system of test [15] is SF-268.
For test [16], the system named is CCRF-CEM.
Test [17] concerns K562.
Test [18] concerns RPMI-8226.
In test [19] the test system is MDA-MB-231.
Test [20] relates to SNB-75.

For the compound `NCC1OC(n2cnc3c(=O)[nH]c(N)nc32)C(O)C1O` (configuration not stated), the GI50 is > 100 µM (inactive) in test [1]; > 100 µM (inactive) in [2]; > 53.3 µM (inactive) in test [3]; > 100 µM (inactive) in test [4]; 69.8 µM (inactive) in test [5]; > 100 µM (inactive) in [6]. The GI50 in test [7] is > 100 µM (inactive); in test [8], < 0.01 µM (active); in test [9], > 100 µM (inactive); in test [10] it was > 100 µM (inactive); in test [11], > 100 µM (inactive); in test [12], > 100 µM (inactive). The GI50 is > 59.7 µM (inactive) in test [13]; > 100 µM (inactive) in [14]; > 100 µM (inactive) in [15]; > 82.8 µM (inactive) in [16]; 1 µM (active) in test [17]; 2.13 µM (inactive) in test [18]. In addition, in test [19], the GI50 is > 100 µM (inactive).

Consider `C[n+]1c2ccccc2c(N=[N+]=[N-])c2ccccc21`, for which the GI50 in test [1] was > 10 µM (inactive); in [2], 9.18 µM (inactive); in [3], > 10 µM (inactive); in test [4] it was 6.46 µM (inactive); in [5], 2.94 µM (inactive); in test [7] it was 3.93 µM (inactive). Moreover, the GI50 is 4.13 µM (inactive) in test [8]; 7.14 µM (inactive) in test [9]; 4.26 µM (inactive) in test [10]; > 10 µM (inactive) in test [11]; 6.28 µM (inactive) in [12]; 6.97 µM (inactive) in [13]. In addition, the GI50 in [14] was > 10 µM (inactive); in test [15], > 10 µM (inactive); in test [16], 3.33 µM (inactive); in test [17], 5.82 µM (inactive); in test [18], 5.08 µM (inactive); in test [19] it was 8.63 µM (inactive).

For the compound `CC(=O)OC(/C=C/c1ccccc1)P1(=O)N(CC(C)(C)C)[C@@H]2CCCC[C@H]2N1CC(C)(C)C` (some centres not stated), the GI50 was 5.9 µM (inactive) and 5.24 µM (inactive) in [1]; 10.5 µM (inactive) and 8.15 µM (inactive) in test [2]; 6.56 µM (inactive) and 7.1 µM (inactive) in [4]; 11.2 µM (inactive) and 9.42 µM (inactive) in test [5]; 7.18 µM (inactive) and 4.19 µM (inactive) in test [6]; 4.25 µM (inactive) and 3.89 µM (inactive) in test [7]. For the same compound, the GI50 in test [8] was 2.92 µM (inactive) and 4.02 µM (inactive); in [9] it was 7.36 µM (inactive) and 10 µM (inactive); in test [10] it was 5.35 µM (inactive) and 5.22 µM (inactive); in [11], 5.26 µM (inactive) and 6.3 µM (inactive); in test [12] it was 9.62 µM (inactive) and 5.27 µM (inactive); in test [14] it was 15.2 µM (inactive) and 8.71 µM (inactive). The GI50 in [15] was 10.9 µM (inactive) and 8.45 µM (inactive); in test [16], 4.81 µM (inactive) and 4.38 µM (inactive); in test [17] it was 5.02 µM (inactive) and 4.68 µM (inactive); in test [18], 3.1 µM (inactive); in [19], 9.68 µM (inactive) and 7.26 µM (inactive).

As to `C(=N\C12CC3CC(CC(C3)C1)C2)/C1CCCCC1`, the GI50 in [1], in test [2], in [3], in test [4], in test [6] and in test [7] was > 100 µM (inactive) throughout. The GI50 in test [8], in [9], in test [10], in test [11], in test [12] and in test [13] was > 100 µM (inactive) throughout. The GI50 in test [20], in test [15], in test [16], in test [17], in test [18] and in test [19] was > 100 µM (inactive) in each case.

The values above are taken from ChEMBL document CHEMBL1201862, “PubChem BioAssay data set” (2004).
